Experimental data from US20140005163A1 (NOVARTIS AG, priority 2010, published 2014).

How the values were obtained:
mTOR = target: T1, mTOR (Homo sapiens, UniProt P42345); assay: Biochemical assay for m-TOR by TR-FRET; details: 8 μM ATP, 400 nM GFP-4EBP1, 0.5 nM mTOR
T1 construct: purchased Invitrogen Corporation (Carlsbad/CA, USA) PV4753
Procedure: Biochemical Assay for m-TOR by TR-FRET.
Assay components are purchased from Invitrogen Corporation (Carlsbad/CA, USA): GFP-4EBP1 (Cat. No. PV4759), Tb3+-α-p4EBP1 [pThr46] Antibody (Cat. No. PV4757), proprietary TR-FRET dilution buffer (Cat. No. PV3574), mTOR protein (Cat. No. PV4753).
Then 5 μL of ATP (8 μM final concentration) and GFP-4EBP1 (400 nM final concentration) with 5 μL mTOR proteins (0.5 nM final concentration) are incubated at rt. The standard reaction buffer for the TR-FRET mTOR assay contained 50 mM HEPES pH 7.5, 10 mM MnCl2, 50 mM NaCl, 1 mM EGTA, 1 mM DTT. Reactions were stopped with 10 μL of a mixture of EDTA containing the Tb3+-α-p4EBP1-[pT46] detection Ab (0.5 nM) in TR-FRET dilution buffer (proprietary to IVG). Plates are read 15 mins later in a Synergy2 reader using an integration time of 0.2 seconds and a delay of 0.1 seconds. […] A standard compound is used as a reference compound and included in all assay plates in the form of 16 dilution points in duplicate.

[1] = test system: PKB Ser473 phosphorylation in Rat1-myr-HA-p110 alpha cells; assay: Reverse protein array assay, PKB Ser473 phosphorylation in Rat1-myr-p110 alpha cells; format: cell-based; details: 0.5 h, pAkt Ser473, 30 minutes compound incubation, read-out: p-PKB IC50
Procedure: (§1) The Rat1-myr-HA-p110 alpha, beta and delta cells were trypsinized and counted with a CASY TT cell counter (Schärfe System GmbH, Reutlingen Germany). […] The plates were incubated at 37° C. and 5% CO2 under humidified condition for at least 20 h. Compound of formula I working solutions were prepared freshly as serial 8 step dilutions (vol/vol) in DMSO on the day of the experiment. […] The final DMSO concentration was kept constant at 0.2%. cell culture medium containing 0.2% DMSO was used as vehicle treatment control. Post incubation, the cells were treated with the serial compound dilution. 50 μl of the compound medium mixture was added to the wells containing cells and 150 μl DMEM medium and incubated for 30 minutes (37° C., 5% CO2). After 30 minutes of incubation, the medium mixture was quickly removed by aspiration. […] 50 μl of the described lysis buffer mix was added to each well, followed by 10 minutes of incubation on ice.
(§2) The samples were spotted onto ZeptoMARKt PWG protein microarray chips (Zeptosens, Witterswil, Switzerland) with the piezoelectric microdispense-based, non-contact Nano-Plotter 2.1 (GeSiM, Grosserkmannsdorf, Germany). Each sample was spotted at 4 different sample concentrations (d1=100%, d2=75%, d3=50%, d4=25%) by diluting the cell lysate with the corresponding volume of lysis buffer mix. After spotting the ZeptoMARK® protein microarrays, the chips are incubated for 1 hour at 37° C. […] After 20 minutes of blocking the chips are extensively rinsed with deionized water (Milli-Q quality, 18MΩ×cm) and dried in a nitrogen air flow.
(§3) After incubation, the arrays were washed twice with 200 μl CAB1 buffer. […] The fluorescence signal was assessed with exposure times of 1, 3, 5 and 10 seconds, depending on the intensity of the signal. The resulting four images taken per array are stored as 16-bit TIF files.
(§4) The fluorescence images for each array were analyzed with the ZeptoVIEW Pro 2.0 software (Zeptosens, Witterswil, Switzerland) and the relative fluorescence intensity for each signal was calculated.

[2] = test system: PKB Ser473 phosphorylation in Rat1-myr-HA-p110 beta cells; assay: Reverse protein array assay, PKB Ser473 phosphorylation in Rat1-myr-p110 beta cells; format: cell-based; details: 0.5 h, pAkt Ser473, 30 minutes incubation, read-out: p-PKB IC50
Procedure: as §1, §2, §3, §4

[3] = test system: PKB Ser473 phosphorylation in Rat1-myr-HA-p110 delta cells; assay: Reverse protein array assay, PKB Ser473 phosphorylation in Rat1-myr-p110 delta cells; format: cell-based; details: read-out: p-PKB IC50
Procedure: as §1, §2, §3, §4

[4] = test system: S6 Ribosomal Protein phosphorylation Ser235/236 in TSC1 null mouse embryo fibroblast (MEF) cells; assay: Reverse protein array assay, S6 Ribosomal Protein phosphorylation Ser235/236 in TSC1 null MEF cells; format: cell-based; details: 1 h, pS6 ribosomal protein Ser235/236, 60 minutes incubation, read-out: p-S6 IC50
Procedure: as §1, with “TSC1−/−” for “Rat1-myr-HA-p110 alpha, beta and delta”, “(Schirfe” for “(Schärfe”, “Working” for “Compound of formula I working”, “0.02%.” for “0.2%.”, “0.02%” for “0.2%”, “60” for “30”
The spotting of the chips follows the previous described method.

T1 sequence (P42345 1360-2549 limits assumed): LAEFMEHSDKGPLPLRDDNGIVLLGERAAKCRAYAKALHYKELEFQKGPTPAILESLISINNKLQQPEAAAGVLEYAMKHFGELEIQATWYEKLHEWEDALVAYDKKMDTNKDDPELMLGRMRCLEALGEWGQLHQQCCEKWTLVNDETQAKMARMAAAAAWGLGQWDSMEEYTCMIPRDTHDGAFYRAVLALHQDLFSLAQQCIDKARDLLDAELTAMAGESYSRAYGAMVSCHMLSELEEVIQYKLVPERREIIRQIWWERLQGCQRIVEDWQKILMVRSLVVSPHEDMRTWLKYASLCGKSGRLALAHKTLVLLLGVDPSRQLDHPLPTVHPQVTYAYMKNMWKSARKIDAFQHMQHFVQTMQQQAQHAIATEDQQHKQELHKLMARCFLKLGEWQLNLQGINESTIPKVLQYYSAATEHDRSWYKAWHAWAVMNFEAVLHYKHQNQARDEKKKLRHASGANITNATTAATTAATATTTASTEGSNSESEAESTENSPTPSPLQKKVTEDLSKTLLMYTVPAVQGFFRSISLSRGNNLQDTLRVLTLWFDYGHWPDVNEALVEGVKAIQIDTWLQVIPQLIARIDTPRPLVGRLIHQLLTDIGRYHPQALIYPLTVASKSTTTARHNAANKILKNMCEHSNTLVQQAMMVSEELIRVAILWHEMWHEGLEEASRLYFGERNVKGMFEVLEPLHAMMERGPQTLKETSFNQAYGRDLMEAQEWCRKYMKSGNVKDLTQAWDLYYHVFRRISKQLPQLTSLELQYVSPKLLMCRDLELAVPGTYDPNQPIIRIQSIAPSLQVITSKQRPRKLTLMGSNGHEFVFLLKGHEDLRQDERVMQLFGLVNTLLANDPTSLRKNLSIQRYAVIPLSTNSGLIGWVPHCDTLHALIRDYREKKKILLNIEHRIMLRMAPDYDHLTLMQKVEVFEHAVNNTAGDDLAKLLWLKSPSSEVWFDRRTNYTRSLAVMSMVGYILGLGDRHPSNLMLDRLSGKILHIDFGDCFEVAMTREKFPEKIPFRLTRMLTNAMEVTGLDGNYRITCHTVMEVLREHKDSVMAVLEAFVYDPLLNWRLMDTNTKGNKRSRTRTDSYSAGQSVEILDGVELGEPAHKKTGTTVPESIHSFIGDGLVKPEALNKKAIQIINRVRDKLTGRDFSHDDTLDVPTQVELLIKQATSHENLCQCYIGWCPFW

Structure (SMILES) | IC50 (mTOR) [µM] | IC50 [1] [µM] | IC50 [2] [µM] | IC50 [3] [µM] | IC50 [4] [µM]
CCn1cc(-n2c(=O)n(C)c3cnc4ccc(-c5ccc(-n6cccn6)cc5)cc4c32)c(C)n1 [Example 51.3, 1-(1-Ethyl-3-methyl-1H-pyrazol-4-yl)-3-methyl-8-(4-pyrazol-1-yl-phenyl)-1,3-dihydro-imidazo[4,5-c]quinolin-2-one] | 0.006 | 0.008 | 0.009 | 0.015 | 0.002
CNc1ncc(-c2ccc3ncc4c(c3c2)n(-c2cn(C)nc2C)c(=O)n4C)cn1 [Example 80.1, 1-(1,3-Dimethyl-1H-pyrazol-4-yl)-3-methyl-8-(2-methylamino-pyrimidin-5-yl)-1,3-dihydro-imidazo[4,5-c]quinolin-2-one] | 0.013 | 0.013 | 0.013 | 0.005 | 0.003
CCNc1cc(-c2ccc3ncc4c(c3c2)n(-c2c(C)noc2C)c(=O)n4C)cnc1Cl [Example 153.3, 8-(6-Chloro-5-ethylamino-pyridin-3-yl)-1-(3,5-dimethyl-isoxazol-4-yl)-3-methyl-1,3-dihydro-imidazo[4,5-c]quinolin-2-one] | 0.665 | 0.034 | 0.055 | 0.112 | 0.036
COCc1ncc(-c2ccc3ncc4c(c3c2)n(-c2cn(C)nc2Cl)c(=O)n4C)cc1OC [Example 195.4, 1-(3-Chloro-1-methyl-1H-pyrazol-4-yl)-8-(5-methoxy-6-methoxymethyl-pyridin-3-yl)-3-methyl-1,3-dihydro-imidazo[4,5-c]quinolin-2-one] | 0.008 | 0.02 | 0.023 | 0.021 | 0.002
CCC(O)(CC)c1cncc(-c2ccc3ncc4c(c3c2)n(-c2cn(C)nc2C)c(=O)n4C)c1 [Example 216, 1-(1,3-Dimethyl-1H-pyrazol-4-yl)-8-[5-(1-ethyl-1-hydroxy-propyl)-pyridin-3-yl]-3-methyl-1,3-dihydro-imidazo[4,5-c]quinolin-2-one] | 0.004 | 0.01 | 0.057 | 0.056 | < 0.0005
Cc1nn(CC(=O)N2CCCC2)cc1-n1c(=O)n(C)c2cnc3ccc(-c4cnc(N5CCCC5)nc4)cc3c21 [Example 247.4, 3-Methyl-1-[3-methyl-1-(2-oxo-2-pyrrolidin-1-yl-ethyl)-1H-pyrazol-4-yl)-8-(2-pyrrolidin-1-yl-pyrimidin-5-yl)-1,3-dihydro-imidazo[4,5-c]quinolin-2-one] | 0.034 | 0.044 | 0.041 | 0.106 | 0.004
